From US10335048B2, “High-resolution metabolic neuroimaging” (Oregon Health & Science University, priority 2013, dated 2019)

Assays:
[1] = human, in vivo
Description: A 7 T [Tesla] whole-body MRI instrument (Siemens, Erlangen Germany), with quadrature transmission and 24-channel phased-array receive head RF coils, was used. Dynamic measurements employed a single-slice inversion recovery (IR) turboflash technique (Haase A. Snapshot FLASH MRI. Applications to T1, T2, and chemical-shift imaging. Magn. Reson. Med. 1990; 13: 77-89), sampling magnetization eight post-inversion times [TIs]: the inversion pulse was non-selective. […] Gadoteridol [ProHance; Bracco Diagnostics, Inc.] was injected into an antecubital vein catheter at 2.5 mL/s using a power injector [Medrad] to deliver a dose of 28 μmol/kg (typically ^˜5 mL), followed by a 15 mL saline flush at the same rate. […] Parametric R1 maps were calculated on a voxel basis by fitting the signal magnitude at each TI with a full Bloch simulation incorporating all RF pulses and delays. […]
Dynamic measurements were obtained using a single-slice inversion recovery (IR) turboflash technique that sampled magnetization at eight time points post inversion. […] Parametric R1 maps were calculated on a voxel basis by fitting the magnitude signal intensity at each inversion time to a full Bloch simulation that incorporated all RF pulses and delays and modeled the recovery from inversion as a two-parameter single exponential using a gradient expansion algorithm. […]

[2] = tested on: human prostate tumor; conditions: cited from earlier work
[3] = tested on: Na+/K+-ATPase; conditions: within 15 minutes of direct application to the striatum; cited from earlier work
[4] = human, in vivo, iv; cited from earlier work

Molecule: CC(O)CN1CCN(CC(=O)[O-])CCN(CC(=O)[O-])CCN(CC(=O)[O-])CC1.[Gd+3] (stereo not shown) [GdHPDO3A, gadoteridol]
- maximum K^trans in the lesion center [1]: above 2×10^−3 min^−1

Molecule: CC(=O)[13C](=O)O [[1-^13C]pyruvate]
- [1-13C]pyruvate to [1-13C]lactate conversion rate constant [2]: 0.045 s⁻¹

Molecule: C[C@@H]1O[C@@H](O[C@H]2C[C@@H](O)[C@]3(CO)[C@H]4[C@H](O)C[C@]5(C)[C@@H](C6=CC(=O)OC6)CC[C@]5(O)[C@@H]4CC[C@]3(O)C2)[C@H](O)[C@H](O)[C@H]1O [ouabain]
- ADC drop [3]: 40%

Molecule: ferumoxytol [Fe-tol]
- plasma t1/2 [4]: 14 h
